These results are taken from PubChem BioAssay (NCI).

Where “and” joins values, the source holds several entries; their conditions need not be identical. Equal values may be shown once.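 Method: 48-hour compound exposure of cells in 96-well plates, five concentrations, linear interpolation of endpoints. At the GI50, growth is halved. TGI: concentration producing complete growth inhibition.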

Some test systems named below: TK-10 renal; UO-31 renal; OVCAR-4 ovarian; SW-620 colon; NCI-H23 lung; SNB-19 CNS; NCI-H522 lung; OVCAR-5 ovarian.
Holding throughout (experiment): DTP human tumour cell line panel, 48 h

As a reminder, the TGI is the concentration at which net growth stops. As to `O=C(O)CCSC(=O)Nc1ccc([N+](=O)[O-])cc1`, the TGI with TK-10 renal, in the assay on UO-31 renal, in the assay on OVCAR-4 ovarian, in the assay on SW-620 colon, in the assay with NCI-H23 lung and in the assay with SNB-19 CNS was over 100 µM in each case.
As for `CCOCC(=O)N[C@H]1CCc2cc(OC)c(OC)c(OC)c2-c2ccc(OC)c(=O)cc21`, the TGI in the assay with TK-10 renal was over 100 µM; in the assay on UO-31 renal it was over 100 µM; with NCI-H522 lung, 0.0768 µM; in the assay with OVCAR-4 ovarian it was over 100 µM; with OVCAR-5 ovarian, over 100 µM; in the assay on SW-620 colon, over 100 µM. Also, the figures for the total growth inhibition concentration (TGI) with NCI-H23 lung and in the assay on SNB-19 CNS were 0.178 µM and over 100 µM, respectively.
Regarding `Cn1c2ccccc2c2ccc3c(c21)C(=O)c1ccccc1C3=O`, the concentration for total growth inhibition (TGI) was 39.1 µM in the assay on TK-10 renal; over 100 µM in the assay on UO-31 renal; 29.6 µM in the assay with NCI-H522 lung; 69.7 µM in the assay on OVCAR-4 ovarian; over 100 µM in the assay with OVCAR-5 ovarian; over 100 µM in the assay on SW-620 colon. For the same molecule, the concentration for total growth inhibition (TGI) in the assay with NCI-H23 lung is 33.5 µM; in the assay with SNB-19 CNS, over 100 µM.
With `O=C1c2ccccc2C(=O)N1CCc1ncc[nH]1`, the TGI in the assay on TK-10 renal, in the assay with UO-31 renal, with NCI-H522 lung, in the assay on OVCAR-5 ovarian, in the assay on SW-620 colon and in the assay with NCI-H23 lung was over 100 µM throughout. The molecule further returned a TGI with SNB-19 CNS of over 100 µM.
One may read the GI50 as the concentration that inhibits growth by half. `Cc1ccc(C(=O)N(CCCN)C(c2oc3cc(Cl)ccc3c(=O)c2Cc2ccccc2)C(C)C)cc1` (centres undefined): the GI50 with TK-10 renal was 1.11 µM; with UO-31 renal, 0.67 µM; in the assay with NCI-H522 lung, under 0.01 µM; in the assay with OVCAR-4 ovarian it was 0.899 µM; in the assay with OVCAR-5 ovarian it was under 0.01 µM; with SW-620 colon it was under 0.01 µM. The GI50 is under 0.01 µM in the assay with NCI-H23 lung and 1.02 µM in the assay with SNB-19 CNS. The concentration for total growth inhibition (TGI) is 2.37 µM in the assay with TK-10 renal; 2.46 µM in the assay on UO-31 renal; under 0.01 µM with NCI-H522 lung; 2.47 µM with OVCAR-4 ovarian; 1.78 µM in the assay with OVCAR-5 ovarian; 1.45 µM with SW-620 colon. For the same molecule, the TGI in the assay with NCI-H23 lung was found to be 1.61 µM; in the assay on SNB-19 CNS it was 2.41 µM.
Regarding `COCCCNC(=O)C1C(=O)C(=O)N(CCCOC)C1=O` (centres undefined), the concentration for total growth inhibition (TGI) in the assay with TK-10 renal, in the assay on UO-31 renal, with NCI-H522 lung, in the assay on OVCAR-4 ovarian, in the assay on OVCAR-5 ovarian and in the assay on SW-620 colon was over 100 µM throughout. The TGI in the assay on NCI-H23 lung and in the assay with SNB-19 CNS was over 100 µM each time.
With `COC1(OC)CC2OC1C1N=NN(C(=O)OC(C)(C)C)C21` (centres undefined), the TGI in the assay on UO-31 renal, with OVCAR-4 ovarian, with OVCAR-5 ovarian, in the assay with SW-620 colon and with NCI-H23 lung was over 100 µM each time.
Regarding `CCOC(=O)/C(=C\c1ccccc1)C(=O)O`, the TGI in the assay on UO-31 renal, with NCI-H522 lung, in the assay on OVCAR-4 ovarian, in the assay on OVCAR-5 ovarian, in the assay with SW-620 colon and in the assay with NCI-H23 lung was over 100 µM throughout. In the assay on SNB-19 CNS, this molecule displayed a TGI of over 100 µM.
Regarding `O=C(CC1(O)C(=O)Nc2ccccc21)c1ccncc1` (centres undefined), the TGI in the assay with UO-31 renal, in the assay on NCI-H522 lung, with OVCAR-4 ovarian, with OVCAR-5 ovarian, in the assay with SW-620 colon and in the assay on NCI-H23 lung was over 100 µM throughout. Besides, the TGI in the assay on SNB-19 CNS was over 100 µM.
On to `O=C1C(Cl)=C(NCCN2CCOCC2)C(=O)c2ncccc21`, for which the GI50 with TK-10 renal is 16.5 µM; with UO-31 renal it was 1.28 µM; with OVCAR-4 ovarian, 1.85 µM; in the assay on SW-620 colon, 2.45 µM; in the assay with NCI-H23 lung, 1.25 µM; in the assay with SNB-19 CNS it was 1.99 µM. The total growth inhibition concentration (TGI) in the assay with TK-10 renal was 3.44 µM and 30.3 µM; with UO-31 renal, 3.03 µM and 2.61 µM; in the assay on OVCAR-4 ovarian, 3.88 µM; with OVCAR-5 ovarian, 3.59 µM and 3.56 µM; with SW-620 colon it was 6.42 µM and 6.22 µM; in the assay on NCI-H23 lung it was 3.75 µM and 3.52 µM. Further, in the assay on SNB-19 CNS, the TGI was 3.15 µM and 4.01 µM.
For the molecule `CS(=O)(=O)c1ccc(-n2nc(C(F)(F)F)cc2OC2CCCC2)cc1`, the GI50 is 36.9 µM in the assay on TK-10 renal; over 100 µM in the assay on UO-31 renal; 45.8 µM in the assay with NCI-H522 lung; 30.3 µM in the assay on OVCAR-4 ovarian; over 100 µM in the assay on OVCAR-5 ovarian; 71.2 µM in the assay with SW-620 colon. In addition, the GI50 in the assay with SNB-19 CNS is 48.7 µM. Moreover, the TGI in the assay with TK-10 renal was 93.9 µM; in the assay on UO-31 renal, over 100 µM; in the assay on NCI-H522 lung, over 100 µM; in the assay with OVCAR-4 ovarian, over 100 µM; in the assay with OVCAR-5 ovarian it was over 100 µM; in the assay on SW-620 colon, over 100 µM. In the assay with SNB-19 CNS, the TGI was over 100 µM.
With `CCN(CC)C(c1ccc(N(C)C)cc1)C(c1ccc(N(C)C)cc1)N(CC)CC` (centres undefined), the TGI in the assay with TK-10 renal is over 73 µM; in the assay on NCI-H522 lung, over 7.3 µM; in the assay with OVCAR-4 ovarian, over 73 µM; with OVCAR-5 ovarian, over 73 µM; in the assay with SW-620 colon it was over 73 µM; in the assay with NCI-H23 lung it was over 73 µM. Further, in the assay on SNB-19 CNS, the TGI is over 73 µM.
In the case of `O=[N+]([O-])c1ccc(C=NC2CCCCC2)cc1`, the TGI with TK-10 renal, in the assay on UO-31 renal, in the assay on OVCAR-4 ovarian, with OVCAR-5 ovarian, with SW-620 colon and in the assay on NCI-H23 lung was over 100 µM each time. Besides, the TGI with SNB-19 CNS is over 100 µM.
As to `N#C/C(=C\c1ccc2ccccc2c1)c1ccccc1`, the TGI is 75.7 µM with TK-10 renal; 86.7 µM with UO-31 renal; 29.6 µM with NCI-H522 lung; 69.1 µM with OVCAR-4 ovarian; over 100 µM in the assay with OVCAR-5 ovarian; over 100 µM in the assay on SW-620 colon. In addition, the TGI in the assay on NCI-H23 lung is over 100 µM.
Turning to `CC1(C)OC2=C(CC1Br)C(=O)C(=O)c1ccccc12` (centres undefined), the GI50 is 1.99 µM with TK-10 renal; 1.35 µM in the assay with UO-31 renal; 1.62 µM in the assay with NCI-H522 lung; 1.67 µM with OVCAR-4 ovarian; 1.91 µM in the assay with SW-620 colon; 1.66 µM in the assay with NCI-H23 lung. In addition, the TGI in the assay on TK-10 renal turned out to be 3.45 µM; in the assay on UO-31 renal, 2.76 µM; with NCI-H522 lung, 3.03 µM; in the assay with OVCAR-4 ovarian, 3.03 µM; in the assay with SW-620 colon it was 3.49 µM; with NCI-H23 lung, 3.75 µM.
In the case of `COc1ccc2nc3c(C(=O)NCCN(C)C)cccc3nc2c1`, the TGI in the assay with TK-10 renal came out at 34.3 µM; in the assay on UO-31 renal it was 47.9 µM; with OVCAR-4 ovarian, 29.6 µM; in the assay on OVCAR-5 ovarian it was 81.3 µM; with SW-620 colon it was 81.6 µM; with NCI-H23 lung, 24.7 µM. In addition, the TGI in the assay on SNB-19 CNS amounted to 37.9 µM.
